How the values were obtained:
Conditions in all cases: Compound concentration 1000.0 nM
[1] = test system: Mast/stem cell growth factor receptor Kit (Homo sapiens), P10721 [V559D,T670I]
[2] = target: Mitotic checkpoint serine/threonine-protein kinase BUB1 (Homo sapiens) (UniProt O43683)
[3] = target: T1, Phosphatidylinositol 3-kinase C2 domain-containing subunit gamma (Homo sapiens) (UniProt O75747)
T1 sequence (whole entry): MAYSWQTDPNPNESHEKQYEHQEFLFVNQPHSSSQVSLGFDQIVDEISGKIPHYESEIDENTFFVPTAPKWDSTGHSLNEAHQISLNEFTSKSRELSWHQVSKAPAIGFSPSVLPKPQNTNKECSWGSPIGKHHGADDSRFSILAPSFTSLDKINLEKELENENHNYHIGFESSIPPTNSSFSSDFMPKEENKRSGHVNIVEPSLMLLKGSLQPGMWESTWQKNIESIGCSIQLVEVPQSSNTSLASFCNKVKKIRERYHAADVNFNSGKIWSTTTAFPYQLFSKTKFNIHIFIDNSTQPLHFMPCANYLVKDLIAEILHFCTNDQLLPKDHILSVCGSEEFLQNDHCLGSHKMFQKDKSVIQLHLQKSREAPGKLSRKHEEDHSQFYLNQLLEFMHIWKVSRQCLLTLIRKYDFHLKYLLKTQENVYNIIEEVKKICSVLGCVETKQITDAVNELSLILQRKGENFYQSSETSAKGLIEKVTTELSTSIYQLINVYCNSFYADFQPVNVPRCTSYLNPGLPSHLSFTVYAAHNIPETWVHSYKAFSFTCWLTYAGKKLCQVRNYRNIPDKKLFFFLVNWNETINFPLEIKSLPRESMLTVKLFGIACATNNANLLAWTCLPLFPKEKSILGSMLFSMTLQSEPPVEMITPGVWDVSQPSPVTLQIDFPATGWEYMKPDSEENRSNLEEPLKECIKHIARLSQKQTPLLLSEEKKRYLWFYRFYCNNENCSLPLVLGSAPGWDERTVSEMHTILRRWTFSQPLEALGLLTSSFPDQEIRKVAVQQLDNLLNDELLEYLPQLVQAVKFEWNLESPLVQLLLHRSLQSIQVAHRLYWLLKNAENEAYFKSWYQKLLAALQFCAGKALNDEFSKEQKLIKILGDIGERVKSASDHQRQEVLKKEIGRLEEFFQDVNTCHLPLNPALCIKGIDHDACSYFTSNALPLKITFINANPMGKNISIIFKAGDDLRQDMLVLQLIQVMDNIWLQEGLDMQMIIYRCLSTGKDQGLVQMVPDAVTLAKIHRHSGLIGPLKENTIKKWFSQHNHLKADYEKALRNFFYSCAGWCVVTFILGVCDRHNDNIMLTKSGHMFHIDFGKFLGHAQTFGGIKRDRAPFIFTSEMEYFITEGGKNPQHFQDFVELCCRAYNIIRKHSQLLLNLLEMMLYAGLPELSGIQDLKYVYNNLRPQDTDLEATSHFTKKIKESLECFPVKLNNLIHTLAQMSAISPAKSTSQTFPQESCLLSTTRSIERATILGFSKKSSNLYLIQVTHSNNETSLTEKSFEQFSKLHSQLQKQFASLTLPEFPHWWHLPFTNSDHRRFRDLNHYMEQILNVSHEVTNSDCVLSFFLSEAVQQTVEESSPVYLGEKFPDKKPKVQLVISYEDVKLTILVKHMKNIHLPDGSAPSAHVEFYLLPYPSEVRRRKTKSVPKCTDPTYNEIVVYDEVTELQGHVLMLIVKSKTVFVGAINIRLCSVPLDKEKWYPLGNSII

[4] = target: Serine/threonine-protein kinase PRP4 homolog (Homo sapiens) (UniProt Q13523)
Sequence of Serine/threonine-protein kinase PRP4 homolog (Homo sapiens) (Q13523 whole entry): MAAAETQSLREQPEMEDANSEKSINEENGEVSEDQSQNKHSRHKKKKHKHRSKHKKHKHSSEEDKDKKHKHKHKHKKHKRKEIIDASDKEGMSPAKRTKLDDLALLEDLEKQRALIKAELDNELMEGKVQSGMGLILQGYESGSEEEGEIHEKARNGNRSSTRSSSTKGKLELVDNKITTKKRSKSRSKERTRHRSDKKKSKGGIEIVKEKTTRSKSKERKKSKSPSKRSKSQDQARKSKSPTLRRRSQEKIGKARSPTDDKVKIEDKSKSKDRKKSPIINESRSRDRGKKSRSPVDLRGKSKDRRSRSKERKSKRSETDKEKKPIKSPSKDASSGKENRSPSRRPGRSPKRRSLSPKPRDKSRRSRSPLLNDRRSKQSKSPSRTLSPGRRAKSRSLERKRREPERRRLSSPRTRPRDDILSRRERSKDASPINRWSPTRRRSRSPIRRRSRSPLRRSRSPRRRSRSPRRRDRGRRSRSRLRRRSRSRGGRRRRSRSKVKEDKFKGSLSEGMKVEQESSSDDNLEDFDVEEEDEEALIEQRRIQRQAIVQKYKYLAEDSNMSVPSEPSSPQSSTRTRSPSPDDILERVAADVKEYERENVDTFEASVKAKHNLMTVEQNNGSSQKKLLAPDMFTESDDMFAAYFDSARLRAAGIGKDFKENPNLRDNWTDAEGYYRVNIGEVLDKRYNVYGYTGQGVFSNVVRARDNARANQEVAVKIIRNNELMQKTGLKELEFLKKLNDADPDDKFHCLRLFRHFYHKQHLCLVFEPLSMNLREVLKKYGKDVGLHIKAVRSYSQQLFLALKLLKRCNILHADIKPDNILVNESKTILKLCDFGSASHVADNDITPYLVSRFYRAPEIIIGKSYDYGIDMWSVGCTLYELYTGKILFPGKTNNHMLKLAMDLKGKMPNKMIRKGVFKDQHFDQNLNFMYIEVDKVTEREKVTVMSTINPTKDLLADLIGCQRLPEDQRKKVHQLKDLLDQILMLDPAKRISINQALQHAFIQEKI

[5] = target: Non-receptor tyrosine-protein kinase TYK2 (Homo sapiens) (UniProt P29597)
[6] = target: T2, Receptor-interacting serine/threonine-protein kinase 1 (Homo sapiens) (UniProt Q13546)
T2 sequence (whole entry): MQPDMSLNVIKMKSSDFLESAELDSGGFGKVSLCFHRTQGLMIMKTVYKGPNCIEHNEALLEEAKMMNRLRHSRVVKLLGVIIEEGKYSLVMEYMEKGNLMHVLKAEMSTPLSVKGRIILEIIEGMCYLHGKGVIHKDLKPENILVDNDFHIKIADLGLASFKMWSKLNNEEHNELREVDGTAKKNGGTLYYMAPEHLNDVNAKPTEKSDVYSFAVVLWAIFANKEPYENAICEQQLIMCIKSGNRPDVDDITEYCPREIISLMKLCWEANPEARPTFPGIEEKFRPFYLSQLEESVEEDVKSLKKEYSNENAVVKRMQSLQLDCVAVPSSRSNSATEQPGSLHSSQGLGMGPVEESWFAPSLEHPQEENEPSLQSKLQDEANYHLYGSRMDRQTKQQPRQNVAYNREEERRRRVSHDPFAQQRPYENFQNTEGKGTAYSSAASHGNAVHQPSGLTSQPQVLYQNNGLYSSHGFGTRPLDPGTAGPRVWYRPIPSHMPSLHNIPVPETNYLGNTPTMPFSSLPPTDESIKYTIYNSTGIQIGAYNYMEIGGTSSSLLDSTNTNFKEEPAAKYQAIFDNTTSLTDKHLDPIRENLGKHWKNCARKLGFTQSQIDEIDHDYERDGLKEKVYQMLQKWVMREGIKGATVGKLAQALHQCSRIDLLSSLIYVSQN

[7] = target: TRAF2 and NCK-interacting protein kinase (Homo sapiens) (UniProt Q9UKE5)
Sequence of TRAF2 and NCK-interacting protein kinase (Homo sapiens) (Q9UKE5 whole entry, looked up): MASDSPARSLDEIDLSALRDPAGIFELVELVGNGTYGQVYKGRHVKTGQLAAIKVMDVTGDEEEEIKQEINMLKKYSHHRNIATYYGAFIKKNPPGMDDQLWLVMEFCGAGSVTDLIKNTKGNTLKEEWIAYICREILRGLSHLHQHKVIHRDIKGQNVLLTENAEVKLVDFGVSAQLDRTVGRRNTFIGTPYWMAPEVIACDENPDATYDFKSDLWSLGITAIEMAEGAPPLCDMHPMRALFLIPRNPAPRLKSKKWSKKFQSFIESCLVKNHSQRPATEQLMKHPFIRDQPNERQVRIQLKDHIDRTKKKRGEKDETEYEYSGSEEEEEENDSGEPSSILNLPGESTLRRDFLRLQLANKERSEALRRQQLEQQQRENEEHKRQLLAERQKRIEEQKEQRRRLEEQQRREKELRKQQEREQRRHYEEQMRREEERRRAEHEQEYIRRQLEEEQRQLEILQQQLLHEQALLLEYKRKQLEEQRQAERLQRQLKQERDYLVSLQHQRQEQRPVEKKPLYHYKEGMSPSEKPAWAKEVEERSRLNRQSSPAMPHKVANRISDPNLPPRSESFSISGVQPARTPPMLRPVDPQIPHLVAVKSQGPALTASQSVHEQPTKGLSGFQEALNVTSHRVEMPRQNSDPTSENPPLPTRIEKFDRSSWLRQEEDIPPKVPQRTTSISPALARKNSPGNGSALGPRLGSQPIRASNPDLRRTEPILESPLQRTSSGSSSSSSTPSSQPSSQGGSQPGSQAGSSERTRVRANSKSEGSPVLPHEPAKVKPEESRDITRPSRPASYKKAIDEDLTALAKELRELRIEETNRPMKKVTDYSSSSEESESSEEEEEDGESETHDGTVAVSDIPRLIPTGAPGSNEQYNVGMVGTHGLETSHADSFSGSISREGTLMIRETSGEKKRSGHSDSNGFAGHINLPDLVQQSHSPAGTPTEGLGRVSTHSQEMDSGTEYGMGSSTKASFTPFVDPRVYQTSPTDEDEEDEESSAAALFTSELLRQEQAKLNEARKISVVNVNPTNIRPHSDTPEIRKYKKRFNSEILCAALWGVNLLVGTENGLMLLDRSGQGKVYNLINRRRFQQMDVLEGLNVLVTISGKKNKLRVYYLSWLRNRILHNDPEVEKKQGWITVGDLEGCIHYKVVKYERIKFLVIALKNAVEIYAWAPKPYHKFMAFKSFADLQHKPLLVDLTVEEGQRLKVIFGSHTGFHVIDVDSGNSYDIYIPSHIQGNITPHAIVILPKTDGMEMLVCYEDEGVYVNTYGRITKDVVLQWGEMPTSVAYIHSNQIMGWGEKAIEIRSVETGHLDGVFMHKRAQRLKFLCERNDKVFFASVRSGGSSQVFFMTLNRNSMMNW

[8] = target: Mitogen-activated protein kinase 4 (Homo sapiens) (UniProt P31152)
Sequence of Mitogen-activated protein kinase 4 (Homo sapiens) (P31152 whole entry): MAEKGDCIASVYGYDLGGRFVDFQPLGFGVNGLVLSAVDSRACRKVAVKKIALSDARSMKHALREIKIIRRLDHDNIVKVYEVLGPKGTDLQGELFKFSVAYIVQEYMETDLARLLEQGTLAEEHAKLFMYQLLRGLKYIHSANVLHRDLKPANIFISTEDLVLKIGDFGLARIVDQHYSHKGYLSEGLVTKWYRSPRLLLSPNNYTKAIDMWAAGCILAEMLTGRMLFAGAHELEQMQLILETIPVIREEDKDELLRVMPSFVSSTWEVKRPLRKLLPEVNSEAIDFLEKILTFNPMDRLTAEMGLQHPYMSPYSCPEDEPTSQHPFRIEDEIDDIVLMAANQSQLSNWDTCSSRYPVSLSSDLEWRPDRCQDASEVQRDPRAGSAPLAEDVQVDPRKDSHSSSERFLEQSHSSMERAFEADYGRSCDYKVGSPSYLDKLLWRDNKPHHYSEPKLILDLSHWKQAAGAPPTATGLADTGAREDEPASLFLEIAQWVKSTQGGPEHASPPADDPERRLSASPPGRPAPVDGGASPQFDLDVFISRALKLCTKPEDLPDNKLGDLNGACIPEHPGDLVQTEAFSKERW

[9] = target: T3, Mitogen-activated protein kinase 12 (Homo sapiens) (UniProt P53778)
T3 sequence (whole entry): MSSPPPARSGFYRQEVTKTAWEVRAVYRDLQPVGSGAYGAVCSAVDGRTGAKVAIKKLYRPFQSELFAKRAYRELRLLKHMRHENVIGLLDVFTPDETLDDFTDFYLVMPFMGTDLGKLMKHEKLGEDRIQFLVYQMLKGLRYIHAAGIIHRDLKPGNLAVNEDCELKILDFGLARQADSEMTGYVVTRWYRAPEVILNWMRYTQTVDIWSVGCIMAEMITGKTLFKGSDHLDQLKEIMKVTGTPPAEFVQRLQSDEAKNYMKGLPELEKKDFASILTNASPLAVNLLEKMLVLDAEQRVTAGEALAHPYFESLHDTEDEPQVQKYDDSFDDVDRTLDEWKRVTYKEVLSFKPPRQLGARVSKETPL

Measured: residual activity

Sequence of Mitotic checkpoint serine/threonine-protein kinase BUB1 (Homo sapiens) (O43683 whole entry, looked up, the tested form may be a part): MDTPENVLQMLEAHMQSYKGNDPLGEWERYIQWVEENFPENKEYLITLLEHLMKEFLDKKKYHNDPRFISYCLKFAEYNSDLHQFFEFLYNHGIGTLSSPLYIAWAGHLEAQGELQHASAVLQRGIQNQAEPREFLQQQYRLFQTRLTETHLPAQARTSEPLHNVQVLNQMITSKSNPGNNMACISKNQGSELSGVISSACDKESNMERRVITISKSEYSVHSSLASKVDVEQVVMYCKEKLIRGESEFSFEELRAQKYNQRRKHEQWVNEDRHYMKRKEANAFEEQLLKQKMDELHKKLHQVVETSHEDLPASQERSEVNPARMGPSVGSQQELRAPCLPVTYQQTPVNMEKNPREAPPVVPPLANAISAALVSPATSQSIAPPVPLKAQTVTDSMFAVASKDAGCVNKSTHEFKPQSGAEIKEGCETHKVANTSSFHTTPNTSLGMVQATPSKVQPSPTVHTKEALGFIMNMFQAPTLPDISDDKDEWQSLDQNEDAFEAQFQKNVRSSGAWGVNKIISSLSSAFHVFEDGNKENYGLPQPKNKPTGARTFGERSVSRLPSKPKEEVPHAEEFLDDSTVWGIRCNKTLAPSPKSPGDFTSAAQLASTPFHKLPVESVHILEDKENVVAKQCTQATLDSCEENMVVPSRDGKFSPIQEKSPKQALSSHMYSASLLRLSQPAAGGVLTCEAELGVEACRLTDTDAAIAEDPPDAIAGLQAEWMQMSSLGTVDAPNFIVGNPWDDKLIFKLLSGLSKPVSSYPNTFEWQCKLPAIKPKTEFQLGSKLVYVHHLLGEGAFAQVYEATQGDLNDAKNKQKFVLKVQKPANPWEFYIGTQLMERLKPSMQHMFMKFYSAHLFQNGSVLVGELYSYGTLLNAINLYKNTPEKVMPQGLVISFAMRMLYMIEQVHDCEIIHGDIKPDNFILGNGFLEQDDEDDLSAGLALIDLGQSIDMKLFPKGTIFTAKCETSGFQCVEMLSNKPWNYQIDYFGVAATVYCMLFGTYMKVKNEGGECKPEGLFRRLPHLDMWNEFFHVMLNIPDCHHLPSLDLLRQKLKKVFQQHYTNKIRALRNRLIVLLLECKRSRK
Sequence of Mast/stem cell growth factor receptor Kit (Homo sapiens), P10721 [V559D,T670I] (P10721 whole entry V559D/T670I): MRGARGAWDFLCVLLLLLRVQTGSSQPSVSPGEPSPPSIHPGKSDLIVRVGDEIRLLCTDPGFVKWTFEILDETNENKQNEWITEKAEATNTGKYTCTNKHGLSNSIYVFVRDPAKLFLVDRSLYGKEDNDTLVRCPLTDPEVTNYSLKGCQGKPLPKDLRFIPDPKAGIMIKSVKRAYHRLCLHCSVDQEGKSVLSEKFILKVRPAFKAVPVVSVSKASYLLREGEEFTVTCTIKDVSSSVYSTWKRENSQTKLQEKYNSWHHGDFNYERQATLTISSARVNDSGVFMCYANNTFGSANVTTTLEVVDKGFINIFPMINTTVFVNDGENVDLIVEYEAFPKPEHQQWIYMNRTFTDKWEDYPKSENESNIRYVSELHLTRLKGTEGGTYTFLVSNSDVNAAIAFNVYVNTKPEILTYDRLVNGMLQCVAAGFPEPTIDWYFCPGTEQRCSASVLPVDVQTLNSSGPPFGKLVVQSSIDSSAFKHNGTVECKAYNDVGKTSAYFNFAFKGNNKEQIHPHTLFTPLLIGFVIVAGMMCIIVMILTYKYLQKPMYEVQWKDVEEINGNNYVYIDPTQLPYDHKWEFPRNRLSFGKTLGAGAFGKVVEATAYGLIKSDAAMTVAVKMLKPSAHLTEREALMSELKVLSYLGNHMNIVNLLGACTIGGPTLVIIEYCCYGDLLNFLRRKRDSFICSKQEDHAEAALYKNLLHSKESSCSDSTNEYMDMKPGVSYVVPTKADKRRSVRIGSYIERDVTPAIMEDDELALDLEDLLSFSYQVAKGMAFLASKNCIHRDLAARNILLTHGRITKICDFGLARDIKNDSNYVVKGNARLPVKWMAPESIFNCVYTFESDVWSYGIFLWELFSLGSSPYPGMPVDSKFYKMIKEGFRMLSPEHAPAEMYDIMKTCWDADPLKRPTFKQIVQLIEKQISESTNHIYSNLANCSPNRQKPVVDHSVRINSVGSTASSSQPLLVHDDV

Cc1nc(C2CCN(C(=O)c3ccc(OC(F)(F)F)cc3N)CC2)c2ncc(N3CCN(C)CC3)cc2n1 [BAY-693]
inactive: [1] 100% | [2] 96% | [3] 100% | [4] 96% | [5] 88% | [6] 98% | [7] 100% | [8] 91% | [9] 100%

CN1CCN(c2cnc3c(C4CCN(C(=O)c5ccc(OC(F)(F)F)cc5N)CC4)ncnc3c2)CC1 [BAY-885]
inactive: [1] 100% | [2] 93% | [3] 100% | [4] 100% | [5] 100% | [6] 100% | [7] 100% | [8] 100% | [9] 83%
